Laboratory results: patent publication US7820714B2, “Siglec inhibitors” (priority 2001, dated 2010)
Like-named read-outs stand apart in the source and are kept apart here.

Tests used:
Siglec-2 (human CD22) = molecular target: T1, Siglec-2 (human CD22) (Homo sapiens, UniProt P20273); assay: Hapten inhibition assay, Siglec-2 (human CD22); format: binding; settings: for Siglec-2 (human CD22) rIP: quotient IC50 reference compound / IC50 compound
T1 sequence (P20273 20-138 limits assumed): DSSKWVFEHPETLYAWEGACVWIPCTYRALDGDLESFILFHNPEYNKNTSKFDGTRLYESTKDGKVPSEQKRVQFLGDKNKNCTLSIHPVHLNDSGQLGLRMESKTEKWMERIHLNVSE
Procedure: (§2) Preferably, the inhibition can be determined by a Hapten inhibition test. […] After overnight incubation at 4° C. the unbound complexes are removed by washing the cells and the bound radioactivity is determined. From the data obtained in this way, the concentrations are found which lead to 50% inhibition of the binding (IC50 values) (5, 6). Specially preferred during the Hapten inhibition test was 10 μl of the complex solution with an activity of 10^3 Bq ^125I mixed with the same volume of a solution of the substance to be investigated (concentrated three times) and incubated at 4° C. for one hour. Then followed the addition of 10 μl of a suspension of target cells, preferably 0.25 to 0.5% of human erythrocytes and incubation overnight at 4° C. The unbound radioactivity is removed by washing the cells five times with 200 μl of washing buffer, preferably phosphate-buffered saline with 0.1% (W/V) bovine serum albumin, and the cell-bound activity is determined with a γ-counter. […] The inhibition is determined in that the value without inhibitor is set to 0% and that with the sialidase-treated cells is set equal to 100%.
(§3) The IC50 value is the siglec inhibitor concentration which leads to 50% inhibition in the binding in the Hapten inhibition assay.

Siglec-4a (MAG) = molecular target: T2, Siglec-4a (MAG) (UniProt P20917); assay: Hapten inhibition assay, Siglec-4a (MAG); settings: for Siglec-4a (MAG) rIP: quotient IC50 reference compound / IC50 compound; for IC50: read-out: Siglec-4a (MAG) IC50
T2 sequence (P20917 1-627): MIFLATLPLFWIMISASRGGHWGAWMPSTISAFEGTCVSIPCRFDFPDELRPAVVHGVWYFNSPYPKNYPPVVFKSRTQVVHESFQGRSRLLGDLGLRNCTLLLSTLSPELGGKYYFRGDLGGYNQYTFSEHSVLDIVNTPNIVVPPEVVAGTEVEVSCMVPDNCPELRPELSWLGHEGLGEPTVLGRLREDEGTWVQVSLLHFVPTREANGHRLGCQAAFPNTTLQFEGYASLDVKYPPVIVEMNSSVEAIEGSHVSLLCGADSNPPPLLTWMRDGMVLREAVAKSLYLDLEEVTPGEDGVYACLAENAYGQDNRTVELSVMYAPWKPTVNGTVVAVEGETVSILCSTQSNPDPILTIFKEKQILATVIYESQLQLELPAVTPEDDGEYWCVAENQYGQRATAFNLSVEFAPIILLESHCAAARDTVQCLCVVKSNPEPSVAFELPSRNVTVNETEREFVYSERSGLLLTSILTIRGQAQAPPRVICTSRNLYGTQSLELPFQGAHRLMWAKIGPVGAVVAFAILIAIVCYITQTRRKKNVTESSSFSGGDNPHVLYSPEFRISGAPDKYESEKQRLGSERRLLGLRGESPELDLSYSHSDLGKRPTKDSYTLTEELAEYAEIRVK
Procedure: Preferably, the inhibition can be determined by a Hapten inhibition test. […] After overnight incubation at 4° C. the unbound complexes are removed by washing the cells and the bound radioactivity is determined. […] Then followed the addition of 10 μl of a suspension of target cells, preferably 0.25 to 0.5% of human erythrocytes and incubation overnight at 4° C. The unbound radioactivity is removed by washing the cells five times with 200 μl of washing buffer, preferably phosphate-buffered saline with 0.1% (W/V) bovine serum albumin, and the cell-bound activity is determined with a γ-counter. […] The inhibition is determined in that the value without inhibitor is set to 0% and that with the sialidase-treated cells is set equal to 100%.

Siglec-1 (sialoadhesin) = Siglec-1 (sialoadhesin) (Mus musculus, UniProt Q62230); assay: Hapten inhibition assay, Siglec-1 (sialoadhesin); format: binding; settings: for Siglec-1 (sialoadhesin) rIP: quotient IC50 reference compound / IC50 compound; for Siglec-1 (sialoadhesin) percentage in parentheses below the IC50 bound: at the concentration of the IC50 bound, meaning not defined in the patent
Siglec-1 (sialoadhesin), sequence (Q62230 20-136 limits assumed): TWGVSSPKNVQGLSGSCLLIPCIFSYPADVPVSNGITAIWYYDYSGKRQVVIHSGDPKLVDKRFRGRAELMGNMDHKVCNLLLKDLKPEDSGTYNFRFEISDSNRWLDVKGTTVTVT
Procedure: as §2, §3

[1] = test system: primary B-lymphocytes from human blood; assay: Ca2+ concentration in primary B-lymphocytes stimulated with anti-IgM; format: cell-based
From the text: (§1) The compound BPC-Neu5Ac (shown below) was used according to known methods in test series for the investigation of the selectivity and the activity. […] This impairment with regard to the binding of ligands leads to an incomplete activation of the intracellular inhibitor domain of CD22.

Daudi cells = assay: Ca2+ concentration in Daudi cells stimulated with anti-IgM; format: cell-based; settings: Daudi cells stimulated with anti-IgM in the presence of the compound
From the text: as §1

Siglec-2 (murine CD22) = molecular target: T3, Siglec-2 (murine CD22) (Mus musculus, UniProt P35329); assay: Hapten inhibition assay, Siglec-2 (murine CD22); format: binding; settings: for Siglec-2 (murine CD22) rIP: quotient IC50 reference compound / IC50 compound
T3 sequence (P35329 22-148 limits assumed): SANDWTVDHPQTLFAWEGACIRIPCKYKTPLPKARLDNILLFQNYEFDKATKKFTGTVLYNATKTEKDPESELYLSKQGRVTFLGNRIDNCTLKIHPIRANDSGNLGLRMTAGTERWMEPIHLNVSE
Procedure: as §2, §3

[2] = at the concentration of the IC50 bound, meaning not defined in the patent

Compound	Siglec-2 (human CD22) rIP (Siglec-2 (human CD22))	binds stronger to siglec-2 than the reference compound (Siglec-2 (human CD22); relative to 2-alpha-methyl-5-N-acetyl-neuraminic acid)	IC50 (Siglec-2 (human CD22); unit inferred) [mM]	Siglec-4a (MAG) rIP (Siglec-4a (MAG))	IC50 (Siglec-4a (MAG); unit inferred) [mM]	Siglec-1 (sialoadhesin) rIP (Siglec-1 (sialoadhesin))	IC50 (Siglec-1 (sialoadhesin); unit inferred) [mM]	Siglec-2 (murine CD22) rIP (Siglec-2 (murine CD22))	IC50 (Siglec-2 (murine CD22); unit inferred) [mM]	Siglec-1 (sialoadhesin) percentage in parentheses below the IC50 bound (Siglec-1 (sialoadhesin))	IC50 (Siglec-1 (sialoadhesin); bounds given in mM) [mM]	Siglec-2 (human CD22) percentage in parentheses below the IC50 bound (Siglec-2 (human CD22); [2])	IC50 (Siglec-2 (human CD22); bounds given in mM) [mM]	Siglec-4a (MAG) percentage in parentheses below the IC50 bound (Siglec-4a (MAG); [2])	IC50 (Siglec-4a (MAG); bounds given in mM) [mM]	Siglec-2 (murine CD22) percentage in parentheses below the IC50 bound (Siglec-2 (murine CD22); [2])	IC50 (Siglec-2 (murine CD22); bounds given in mM) [mM]	selectivity of affinity for hCD22 (Siglec-2 (human CD22); in words)	Ca2+ concentration [1]	Ca2+ concentration (Daudi cells)
CO[C@]1(C(=O)O)C[C@H](O)[C@@H](NC(C)=O)[C@H]([C@H](O)[C@H](O)CO)O1 [Methyl-α-Neu5Ac, reference compound]	1.0	–	1.39	1.0	4.72	1.0	0.884	1.0	4.69	–	–	–	–	–	–	–	–	–	–	–
COC1(C(=O)O)CC(O)C(O)C(C(O)C(O)CO)O1 (stereo not drawn) [Methyl-α-ketodesoxy-nonulsonic acid]	<<2	–	–	<<0.5	–	<0.8	–	<1.5	–	(74%)	> 1	(117%)	> 1	(225%)	> 1	(74%)	> 2	–	–	–
CS[C@]1(C(=O)O)C[C@H](O)[C@@H](NC(C)=O)[C@H]([C@H](O)[C@H](O)CO)O1 [Methylthio-α-Neu5Ac]	1.6	–	1.37	1.3	2.77	0.8	0.6	1.1	4.25	–	–	–	–	–	–	–	–	–	–	–

The remaining compounds from weak to strong by IC50 (Siglec-2 (human CD22); unit inferred), led by results:

Siglec-2 (human CD22) rIP (Siglec-2 (human CD22))	binds stronger to siglec-2 than the reference compound (Siglec-2 (human CD22); relative to 2-alpha-methyl-5-N-acetyl-neuraminic acid)	IC50 (Siglec-2 (human CD22); unit inferred) [mM]	Siglec-4a (MAG) rIP (Siglec-4a (MAG))	IC50 (Siglec-4a (MAG); unit inferred) [mM]	Siglec-1 (sialoadhesin) rIP (Siglec-1 (sialoadhesin))	IC50 (Siglec-1 (sialoadhesin); unit inferred) [mM]	Siglec-2 (murine CD22) rIP (Siglec-2 (murine CD22))	IC50 (Siglec-2 (murine CD22); unit inferred) [mM]	Siglec-1 (sialoadhesin) percentage in parentheses below the IC50 bound (Siglec-1 (sialoadhesin))	IC50 (Siglec-1 (sialoadhesin); bounds given in mM) [mM]	Siglec-2 (human CD22) percentage in parentheses below the IC50 bound (Siglec-2 (human CD22); [2])	IC50 (Siglec-2 (human CD22); bounds given in mM) [mM]	Siglec-4a (MAG) percentage in parentheses below the IC50 bound (Siglec-4a (MAG); [2])	IC50 (Siglec-4a (MAG); bounds given in mM) [mM]	Siglec-2 (murine CD22) percentage in parentheses below the IC50 bound (Siglec-2 (murine CD22); [2])	IC50 (Siglec-2 (murine CD22); bounds given in mM) [mM]	Compound	selectivity of affinity for hCD22 (Siglec-2 (human CD22); in words)	Ca2+ concentration [1]	Ca2+ concentration (Daudi cells)
4.1	–	0.383	50	0.11	0.2	–	6.9	0.76	(93%)	> 1	–	–	–	–	–	–	CO[C@]1(C(=O)O)C[C@H](O)[C@@H](NC(C)=O)[C@H]([C@H](O)[C@H](O)CNC(=O)C2CCCCC2)O1 [Methyl-α-9-N-cyclohexanoyl-amino-9-desoxy-Neu5Ac]	–	–	–
28	–	0.077	41	0.106	<<0.5	–	48	0.1	(121%)	> 1.5	–	–	–	–	–	–	Methyl-α-9-N-fluoresceinyl-amino-9-desoxy-Neu5Ac	–	–	–
150	approximately 150 times	0.004	218	0.022	13	0.052	5.0	1.22	–	–	–	–	–	–	–	–	CO[C@]1(C(=O)O)CC(O)[C@@H](NC(C)=O)C([C@@H](O)[C@H](O)CNC(=O)c2ccc(-c3ccccc3)cc2)O1 (stereo partly drawn) [Methyl-α-9-N-(biphenyl-4-carbonyl)-amino-9-desoxy-Neu5Ac]	very remarkable selective affinity for hCD22	clearly increased Ca^2+ concentration	rise in the Ca^2+ concentration
